For data set [1], the system named is gram-positive and gram-negative bacteria. The data set can be described thus: antibacterial activity (statement in words). The format is cell-based.
Data set [2] can be described thus: pharmacokinetic properties: blood level, intestinal absorption (statement in words). The format is in vivo. The settings on record: in comparison with cyprofloxacin.
In a further data set the test system is Proteus vulgaris 3167. The data set can be described thus: Minimum Inhibitory Concentration (standard method of the Japan Society of Chemotherapy). The format is cell-based. The settings on record: read-out: Minimum Inhibitory Concentration (MIC). As to the method:
(§1) Determined by the standard method of the Japan Society of Chemotherapy: i
(§2) MullerHinton bouillon, 10^6 /ml of bacteria were seeded and incubated
(§3) at 37° C. for 18 hours.

Data set [3] has as its system Staphylococcus epidermidis 56556. The data set is described as above. The format is cell-based. The note with it: read-out: Minimum Inhibitory Concentration (MIC). As to the method: as §1, §2, §3
Data set [4] has as its system Pseudomonas maltophilia IID 1275. The data set is described as above. The format is cell-based. The note with it: Stenotrophomonas maltophilia, read-out: Minimum Inhibitory Concentration (MIC). The protocol:
as §1, §2, §3

Data set [5] deals with Staphylococcus aureus Smith. The data set is described as above. The format is cell-based. The settings on record: read-out: Minimum Inhibitory Concentration (MIC). The protocol: as §1, §2, §3
Data set [6] relates to Streptococcus faecalis ATCC 19433. Described as above. The format is cell-based. The note with it: Enterococcus faecalis, read-out: Minimum Inhibitory Concentration (MIC). The protocol:
as §1, §2, §3

Another data set deals with Escherichia coli NIHJ. Described as above. The settings on record: Muller-Hinton bouillon, 10^6/ml bacteria, 37° C., 18 hours. The format is cell-based. The protocol:
as §1, §2, §3

In data set [7] the test system is Serratia marcessens 13001. The description is as above. The format is cell-based. The note with it: Muller-Hinton bouillon, 10^6/ml bacteria, 37° C., 18 hours. The protocol: as §1, §2, §3
In data set [8] the test system is Pseudomonas cepacia IID 1340. Described as above. The format is cell-based. The note with it: Burkholderia cepacia, read-out: Minimum Inhibitory Concentration (MIC). As to the method:
as §1, §2, §3

Data set [9] relates to Pseudomonas aeruginosa 2131. The description is as above. The format is cell-based. The note with it: read-out: Minimum Inhibitory Concentration (MIC). The protocol: as §1, §2, §3
[10] abbreviates: Proteus vulgaris 3167, Muller-Hinton bouillon, 10^6/ml bacteria, 37° C., 18 hours.
The mark [11] stands for this setting: Staphylococcus epidermidis 56556, Muller-Hinton bouillon, 10^6/ml bacteria, 37° C., 18 hours.
The mark [12] stands for this setting: IID1275, Pseudomonas maltophilia IID 1275, Muller-Hinton bouillon, 10^6/ml bacteria, 37° C., 18 hours.
[13] abbreviates: Staphylococcus aureus Smith, Muller-Hinton bouillon, 10^6/ml bacteria, 37° C., 18 hours.
[14] abbreviates: ATCC19433, Streptococcus faecalis ATCC 19433, Muller-Hinton bouillon, 10^6/ml bacteria, 37° C., 18 hours.
Setting [15] is: IID1340, Pseudomonas cepacia IID 1340, Muller-Hinton bouillon, 10^6/ml bacteria, 37° C., 18 hours.
Where [16] appears, read: Pseudomonas aeruginosa 2131, Muller-Hinton bouillon, 10^6/ml bacteria, 37° C., 18 hours.

In brackets after ≈: the same amount, converted by molar mass. Where two headings read alike, the source gives them in different places.

Consider eight compounds from patent publication US4871852A, “Quinoline-carboxylic acid derivatives” (Daiichi Seiyaku Co., Ltd., priority 1984, dated 1989).

For the compound `CN1CCN(c2cc3c(cc2F)c(=O)c(C(=O)O)cn3[C@@H]2C[C@@H]2F)CC1` (relative stereo) [Ia-1, 1-(cis-2-fluorocyclopropyl)-6-fluoro-1,4-dihydro-7-(4-methyl-1-piperazinyl)-4-oxoquinoline-3-carboxylic acid], the antibacterial activity entry in data set [1] is “strong antibacterial activity”. The blood level entry in data set [2] is on record as “high blood level”. Moreover, the intestinal absorption result in data set [2] is given as “good intestinal absorption”. Also, the MIC was at most 0.05 µg/mL in the data set on Proteus vulgaris 3167 (setting [10]); 0.1 µg/mL (≈ 0.275 µM) in [3] (setting [11]); 0.2 µg/mL (≈ 0.55 µM) in data set [4] (setting [12]); at most 0.05 µg/mL in data set [5] (setting [13]); 0.78 µg/mL (≈ 2.15 µM) in data set [6] (setting [14]); at most 0.05 µg/mL against Escherichia coli NIHJ. The figures for the MIC in [7], in data set [8] (setting [15]) and in [9] (setting [16]) were at most 0.05 µg/mL, 0.2 µg/mL (≈ 0.55 µM) and 0.2 µg/mL (≈ 0.55 µM), respectively.
Regarding `O=C(O)c1cn([C@@H]2C[C@@H]2F)c2cc(N3CCNCC3)c(F)cc2c1=O` (relative stereo) [Ia-2, 1-(cis-2-fluorocyclopropyl)-6-fluoro-1,4-dihydro-7-(1-piperazinyl)-4-oxoquinoline-3-carboxylic acid], the MIC was at most 0.05 µg/mL in the data set with Proteus vulgaris 3167 (setting [10]); 0.2 µg/mL (≈ 0.573 µM) in [3] (setting [11]); 0.78 µg/mL (≈ 2.23 µM) in data set [4] (setting [12]); 0.1 µg/mL (≈ 0.286 µM) in data set [5] (setting [13]); 1.56 µg/mL (≈ 4.47 µM) in data set [6] (setting [14]); at most 0.05 µg/mL against Escherichia coli NIHJ. Further, the MIC was at most 0.05 µg/mL in data set [7], 1.56 µg/mL (≈ 4.47 µM) in data set [8] (setting [15]) and at most 0.05 µg/mL in data set [9] (setting [16]).
As for `CN1CCN(c2c(F)cc3c(=O)c(C(=O)O)cn([C@@H]4C[C@@H]4F)c3c2F)CC1` (relative stereo) [Ib-1, 1-(2-fluorocyclopropyl)-6,8-difluoro-1,4-dihydro-7-(4-methyl-1-piperazinyl)-4-oxoquinoline-3-carboxylic acid], the MIC with Proteus vulgaris 3167 (setting [10]) is at most 0.05 µg/mL; in data set [3] (setting [11]), 0.2 µg/mL (≈ 0.524 µM); in data set [4] (setting [12]), 0.1 µg/mL (≈ 0.262 µM); in [5] (setting [13]), 0.1 µg/mL (≈ 0.262 µM); in data set [6] (setting [14]) it was 0.78 µg/mL (≈ 2.05 µM); with Escherichia coli NIHJ it was at most 0.05 µg/mL. In addition, the MIC in data set [7] is at most 0.05 µg/mL; in data set [8] (setting [15]), 0.78 µg/mL (≈ 2.05 µM); in data set [9] (setting [16]), 0.1 µg/mL (≈ 0.262 µM).
Consider `O=C(O)c1cn([C@@H]2C[C@@H]2F)c2c(F)c(N3CCNCC3)c(F)cc2c1=O` (relative stereo) [Ib-2, 1-(2-fluorocyclopropyl)-6,8-difluoro-1,4-dihydro-7-(1-piperazinyl)-4-oxoquinoline-3-carboxylic acid], for which the MIC in the data set with Proteus vulgaris 3167 (setting [10]) is at most 0.05 µg/mL; in [3] (setting [11]), 0.2 µg/mL (≈ 0.544 µM); in [4] (setting [12]), 0.78 µg/mL (≈ 2.12 µM); in [5] (setting [13]), 0.1 µg/mL (≈ 0.272 µM); in data set [6] (setting [14]), 1.56 µg/mL (≈ 4.25 µM); against Escherichia coli NIHJ, at most 0.05 µg/mL. The values for the MIC in data set [7], in [8] (setting [15]) and in data set [9] (setting [16]) were at most 0.05 µg/mL, 1.56 µg/mL (≈ 4.25 µM) and at most 0.05 µg/mL, respectively.
Take `CN1CCN(c2cc3c(cc2F)c(=O)c(C(=O)O)cn3C2CC2)CC1` [Ba-1, 1cyclopropyl-6-fluoro-1,4-dihydro-7-(4-methyl-1-piperazinyl)-4-oxoquinoline-3-carboxylic acid, reference compound]: the MIC is at most 0.05 µg/mL in the data set with Proteus vulgaris 3167 (setting [10]); 0.39 µg/mL (≈ 1.13 µM) in data set [3] (setting [11]); 0.2 µg/mL (≈ 0.579 µM) in [4] (setting [12]); 0.2 µg/mL (≈ 0.579 µM) in data set [5] (setting [13]); 0.78 µg/mL (≈ 2.26 µM) in data set [6] (setting [14]); at most 0.05 µg/mL with Escherichia coli NIHJ. Moreover, the MIC in data set [7] turned out to be 0.1 µg/mL (≈ 0.29 µM); in data set [8] (setting [15]) it was 0.78 µg/mL (≈ 2.26 µM); in data set [9] (setting [16]), 0.1 µg/mL (≈ 0.29 µM).
With `O=C(O)c1cn(C2CC2)c2cc(N3CCNCC3)c(F)cc2c1=O` [Ba-2, 1-cyclopropyl-6-fluoro-1,4-dihydro-7-(1-piperazinyl)-4-oxoquinoline-3-carboxylic acid, reference compound], the MIC in the data set with Proteus vulgaris 3167 (Proteus vulgaris, 3167, 18 h) is at most 0.05 µg/mL; in data set [3] (Staphylococcus epidermidis, 56556, 18 h), 0.2 µg/mL (≈ 0.604 µM); in [4] (IID1275, 18 h) it was 0.78 µg/mL (≈ 2.35 µM); in data set [5] (Staphylococcus aureus, 18 h), 0.1 µg/mL (≈ 0.302 µM); in data set [6] (ATCC19433, 18 h), 0.78 µg/mL (≈ 2.35 µM); with Escherichia coli NIHJ it was at most 0.05 µg/mL. Also, the MIC was at most 0.05 µg/mL in data set [7]; 3.13 µg/mL (≈ 9.45 µM) in data set [8] (IID1340, 18 h); at most 0.05 µg/mL in [9] (Pseudomonas aeruginosa, 2131, 18 h).
Regarding `CN1CCN(c2c(F)cc3c(=O)c(C(=O)O)cn(C4CC4)c3c2F)CC1` [Ba-3, 1cyclopropyl-6,8-difluoro-1,4-dihydro-7-(4-methyl-1-piperazinyl)-4-oxoquinoline-3-carboxylic acid, reference compound], the MIC was at most 0.05 µg/mL with Proteus vulgaris 3167 (setting [10]); 0.2 µg/mL (≈ 0.55 µM) in data set [3] (setting [11]); at most 0.05 µg/mL in data set [4] (setting [12]); 0.2 µg/mL (≈ 0.55 µM) in [5] (setting [13]); 0.78 µg/mL (≈ 2.15 µM) in [6] (setting [14]); at most 0.05 µg/mL in the data set with Escherichia coli NIHJ. For the same compound, the values for the MIC in data set [7], in [8] (setting [15]) and in data set [9] (setting [16]) were at most 0.05 µg/mL, 0.78 µg/mL (≈ 2.15 µM) and 0.2 µg/mL (≈ 0.55 µM), respectively.
Take `O=C(O)c1cn(C2CC2)c2c(F)c(N3CCNCC3)c(F)cc2c1=O` [Ba-4, 1cyclopropyl-6,8-difluoro-1,4-dihydro-7-(1-piperazinyl)-4-oxoquinoline-3-carboxylic acid, reference compound]: the MIC with Proteus vulgaris 3167 (setting [10]) is at most 0.05 µg/mL; in [3] (setting [11]), 0.2 µg/mL (≈ 0.573 µM); in [4] (setting [12]) it was 0.39 µg/mL (≈ 1.12 µM); in [5] (setting [13]), 0.2 µg/mL (≈ 0.573 µM); in [6] (setting [14]) it was 0.78 µg/mL (≈ 2.23 µM); in the data set with Escherichia coli NIHJ it was at most 0.05 µg/mL. Further, the MIC was at most 0.05 µg/mL in [7], 0.39 µg/mL (≈ 1.12 µM) in [8] (setting [15]) and at most 0.05 µg/mL in data set [9] (setting [16]).
